Results on 9 molecules are retold here after PubChem BioAssay AID2060620 (Molecular Pharmacology Branch, DTP, NCI, 2025).

Each structure is given as a SMILES string. “And” between values parts separate entries of the source, which are not always exact repeats. Identical values can stand only once. Bounds are passed on as bounds.

In the assay the test system is 328373-195-R-J1-PDC complex spheroids, viability % test/control. Briefly: Anticancer human tumor 328373-195-R-J1-PDC patient-derived head and neck squamous carcinoma cell line growth inhibition [CLK]. As to conditions: for viability, T/C: stronger effect = lower value. From the text: A high-throughput screen of multi-cell type tumor spheroids was designed to identify active combinations of […] and targeted small molecules. Complex spheroids include a stromal component modeled by human endothelial cells (HUVEC) and fibroblasts modeled by human mesenchymal stem cells (MSCs). The concentration ranges selected for each drug and investigational agent were based upon clinically achievable concentrations if the clinical Cmax of the agent was known.
Compounds. The drugs and investigational agents: cirtuvivint (SM08502; NSC835563), CC-671 (NSC850746), vemurafenib (NSC761431), tapotoclax (NSC804041), sotorasib (NSC818433), adagrasib (NSC831453), MRTX-1133 (NSC836407), BAY2416964 (NSC825713), copanlisib (NSC816437), inavolisib (NSC800729), abemaciclib (NSC768073), osimertinib (NSC779217), entinostat (NSC756642), eltanexor (KPT-8602, NSC794443), venetoclax (NSC766270), ceralasertib (NSC777638), bortezomib (NSC756655), olaparib (NSC753686), talazoparib (NSC767125), alisertib (NSC759677), peposertib (NSC802822), gemcitabine (NSC613327), 5-fluorouracil (NSC19893), SN-38 (NSC673596), oxaliplatin (NSC266046), paclitaxel (NSC125973), and doxorubicin (NSC123127), were obtained from the National Cancer Institute (NCI) Developmental Therapeutics Program Chemical Repository. The FDA-approved anticancer drug set is available from the Developmental Therapeutics Program at https://dtp.cancer.gov/organization/dscb/obtaining/available plates.htm. […] The stock solutions were prepared in dimethyl sulfoxide (DMSO, Sigma-Aldrich, St. Louis, MO, cat. D2650), except for the platinum complexes which were prepared in saline (Quality Biological, Gaithersburg, MD, cat. 114-055-101), at 800-fold the tested concentration and stored at -70 degrees C prior to their use. All drugs and investigational agents were tested over a range starting from a high concentration at or near the clinical Cmax and decreasing in half-log increments. If the clinical Cmax for an agent had not been determined, the highest concentration tested was 10 microM.
Cell Culture. All cells were maintained in an incubator at 37 degrees C and 5% CO2 with 95% humidity. The PDC lines were cultured according to standard operating procedures established by the NCI PDMR. Briefly, all PDCs were thawed and cultured in Matrigel-coated flasks prepared with a working solution of 1X Ham's F-12 nutrient mix, without supplementation (Invitrogen, Waltham, MA, cat. 11765054), 100 U/mL penicillin-streptomycin (Invitrogen, cat. 15140122), and 2.5% Matrigel (Corning Inc., Corning, NY, cat. 354248) for the first three passages. The 947758-054-R-J2-PDC line was cultured in 6B/Colon 1A media, which includes advanced DMEM/F-12 (Thermo Fisher Scientific, cat. 12634028), 10 mM HEPES (Thermo Fisher Scientific, cat. 15630080), 1X GlutaMAX supplement (Thermo Fisher Scientific, cat. 35050061), 0.1 mg/mL primocin (InvivoGen, cat. ant-pm-2), 10% defined fetal bovine serum, heat inactivated (HyClone Laboratories Inc., cat. SH30070.03HI), 1.25 mM N-Acetyl-L-cysteine (Sigma-Aldrich, cat. A9165), 10 mM nicotinamide (Sigma-Aldrich, cat. N0636), 1X B-27 supplement (Thermo Fisher Scientific, cat. 17504044), 1X N-2 supplement (Thermo Fisher Scientific, cat. 17502048), and 10 microM Y-27632 dihydrochloride (Tocris Bioscience, cat. 1254). The 876862-298-R-J1-PDC was cultured in 6E media, which includes all 6B/Colon 1A media components plus 50% L-WRN conditioned media (ATCC, cat. CRL-3276), 50 ng/mL recombinant human EGF recombinant protein (hEGF; Thermo Fisher Scientific, cat. PHG0311), 10 ng/mL recombinant human fibroblast growth factor 10 (hGFG-10; PeproTech, cat. 100-26), 1 ng/mL recombinant human fibroblast growth factor 2 (hFGF-2; PeproTech, cat. 100-18B), and 1 µM prostaglandin E2 (PGE2; Tocris, cat. 2296). The 227483-062-R1-J1-PDC line was cultured in Panc media, containing all 6E components except hFGF-2, with the addition of 500 nM SB-431542 (Selleckchem, cat. S1067) and 10 nM gastrin (Tocris, cat. 3006). […]
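Note: spheroids exposed to the agents for 7 days.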

What is called viability, T/C is the ratio of treated to control. Broadly, the IC50 is the point on the concentration scale where inhibition reaches its midpoint. Turning to `CC(=O)O[C@H]1C(=O)[C@@]2(C)[C@H]([C@H](OC(=O)c3ccccc3)[C@]3(O)C[C@H](OC(=O)[C@H](O)[C@@H](NC(=O)c4ccccc4)c4ccccc4)C(C)=C1C3(C)C)[C@]1(OC(C)=O)CO[C@@H]1C[C@@H]2O`, the viability, T/C runs as follows: (compound 0.0316 µM) 10.2% and 4.45%; (compound 0.1 µM) 5.56% and 4.34%; (compound 0.316 µM) 5.87% and 5.98%; (compound 1 µM) 10.8% and 8.33%; (compound 3.16 µM) 14.6% and 9.57%; (compound 10 µM) 14.7% and 10.1%. For the same molecule, the IC50 (curve of compound) was less than 31.6 nM.

Regarding `CC1COCCN1c1cc(C2(S(C)(=N)=O)CC2)nc(-c2ccnc3[nH]ccc23)n1` (stereo unspecified), the viability, T/C is 99.7% and 95.9% (compound 0.0316 µM); 91.5% and 81.3% (compound 0.1 µM); 88.8% and 91.9% (compound 0.316 µM); 70.2% and 70% (compound 1 µM); 29.4% and 27.2% (compound 3.16 µM); 9.11% and 6.62% (compound 10 µM). Also, the IC50 (curve of compound) is 1760 nM and 1730 nM.

For `CNC(=O)c1ccc(Nc2nc(OC3CCCC3)c3c(-c4ccc5nc(C)oc5c4)c[nH]c3n2)c(OC)c1`, the viability, T/C was 12.1% [middle of 12 runs] (compound 0.1 µM); 10.1% [middle of 11 runs] (compound 0.316 µM); 9.35% [middle of 12 runs] (compound 1 µM); 9.17% [middle of 12 runs] (compound 3.16 µM); 11.8% [middle of 12 runs] (compound 10 µM).

For `COc1ccc([C@@H](O)c2cc(-c3ncnc4cc(N5CCOCC5)ccc34)c(F)cc2Cl)nn1`, the viability, T/C (compound 0.0316 µM) was 92.4% and 111%; the viability, T/C (compound 0.1 µM) was 91.4% and 93%; the viability, T/C (compound 0.316 µM) was 88% and 80%; the viability, T/C (compound 1 µM) is 86.8% and 84.3%; the viability, T/C (compound 3.16 µM) is 76% and 71.4%; the viability, T/C (compound 10 µM) was 48.9% and 47.2%. Also, the IC50 (curve of compound) was 9710 nM and > 10000 nM.

Turning to `COc1cccc2c1C(=O)c1c(O)c3c(c(O)c1C2=O)CC(O)(C(=O)CO)CC3OC1CC(N)C(O)C(C)O1` (stereo unspecified), the viability, T/C by setting is: (compound 0.0316 µM) 14.6% and 11.2%; (compound 0.1 µM) 11.1% and 6.08%; (compound 0.316 µM) 1.12% and 2.35%; (compound 1 µM) 0.18% and 1.14%; (compound 3.16 µM) 2.47% and 0.1%; (compound 10 µM) 1.82% and 1.43%. Besides, the IC50 (curve of compound) was less than 31.6 nM.

Take `Nc1ccn(C2OC(CO)C(O)C2(F)F)c(=O)n1` (stereo unspecified): the viability, T/C was 4.83% and 1.9% (compound 0.0316 µM); 2.69% and 2.98% (compound 0.1 µM); 2.89% and 2.37% (compound 0.316 µM); 2.8% and 3.02% (compound 1 µM); 2.26% and 2.69% (compound 3.16 µM); 2.3% and 1.66% (compound 10 µM). In addition, the half-maximal inhibitory concentration (IC50) (curve of compound) is less than 31.6 nM.

For the molecule `O=C(c1cc(Cc2n[nH]c(=O)c3ccccc23)ccc1F)N1CCN(C(=O)C2CC2)CC1`, the viability, T/C is 99.6% and 98.6% (compound 0.0316 µM); 94.2% and 88% (compound 0.1 µM); 91.3% and 90.8% (compound 0.316 µM); 87.9% and 100% (compound 1 µM); 93.2% and 101% (compound 3.16 µM); 73.2% and 66.8% (compound 10 µM). For the setting “curve of compound”, the IC50 is greater than 10000 nM.

Regarding `O=c1[nH]cc(F)c(=O)[nH]1`, the viability, T/C was 54% and 64.5% (compound 0.0316 µM); 14.5% and 17.4% (compound 0.1 µM); 11.9% and 9.36% (compound 0.316 µM); 6.67% and 7.09% (compound 1 µM); 8.84% and 8.77% (compound 3.16 µM); 14.9% and 15.6% (compound 10 µM). Also, the IC50 (curve of compound) was 35.6 nM and 44.9 nM.

`CCCS(=O)(=O)Nc1ccc(F)c(C(=O)c2c[nH]c3ncc(-c4ccc(Cl)cc4)cc23)c1F` + CN1CCN(c2cc(C(=O)Nc3cc4cc(-c5cnn(C)c5)ccc4cn3)ccn2)CC1: the IC50 was greater than 10000 nM (curve of first compound, second compound 0.0316 µM); greater than 10000 nM (curve of first compound, second compound 0.1 µM); less than 31.6 nM (curve of first compound, second compound 0.316 µM); less than 31.6 nM (curve of first compound, second compound 1 µM); less than 31.6 nM (curve of first compound, second compound 3.16 µM); less than 31.6 nM (curve of first compound, second compound 10 µM). Besides, the viability, T/C is 102% (second compound 0.0316 µM, first compound 0.0316 µM); 91.4% (second compound 0.0316 µM, first compound 0.1 µM); 109% (second compound 0.0316 µM, first compound 0.316 µM); 100% (second compound 0.0316 µM, first compound 1 µM); 101% (second compound 0.0316 µM, first compound 3.16 µM); 81.6% (second compound 0.0316 µM, first compound 10 µM). The viability, T/C is 78.8% (second compound 0.1 µM, first compound 0.0316 µM); 82.2% (second compound 0.1 µM, first compound 0.1 µM); 83.7% (second compound 0.1 µM, first compound 0.316 µM); 86.6% (second compound 0.1 µM, first compound 1 µM); 96.5% (second compound 0.1 µM, first compound 3.16 µM); 81.7% (second compound 0.1 µM, first compound 10 µM). For the same molecule, the viability, T/C (second compound 0.316 µM, first compound 0.0316 µM) is 35.8%; the viability, T/C (second compound 0.316 µM, first compound 0.1 µM) was 38.5%; the viability, T/C (second compound 0.316 µM, first compound 0.316 µM) was 34.8%; the viability, T/C (second compound 0.316 µM, first compound 1 µM) is 40%; the viability, T/C (second compound 0.316 µM, first compound 3.16 µM) is 34.7%; the viability, T/C (second compound 0.316 µM, first compound 10 µM) was 28.9%. For the same molecule, the viability, T/C was 2.19% (second compound 1 µM, first compound 0.0316 µM); 1.09% (second compound 1 µM, first compound 0.1 µM); 2.63% (second compound 1 µM, first compound 0.316 µM); 2.9% (second compound 1 µM, first compound 1 µM); 1.71% (second compound 1 µM, first compound 3.16 µM); 0.31% (second compound 1 µM, first compound 10 µM). Also, the viability, T/C by setting is: (second compound 3.16 µM, first compound 0.0316 µM) 0.65%; (second compound 3.16 µM, first compound 0.1 µM) 1.41%; (second compound 3.16 µM, first compound 0.316 µM) 2.96%; (second compound 3.16 µM, first compound 1 µM) 1.01%; (second compound 3.16 µM, first compound 3.16 µM) 1.06%; (second compound 3.16 µM, first compound 10 µM) 0.14%. The viability, T/C is, setting by setting: (second compound 10 µM, first compound 0.0316 µM) 1.51%; (second compound 10 µM, first compound 0.1 µM) 3.41%; (second compound 10 µM, first compound 0.316 µM) 0.81%; (second compound 10 µM, first compound 1 µM) 2.54%; (second compound 10 µM, first compound 3.16 µM) 2.37%; (second compound 10 µM, first compound 10 µM) 0.63%.
